Active and inactive are the calls of the source. No cut-off for these calls is given here.
Tests used:
NCI-H1975 [1] = assay: Induction of apoptosis in human NCI-H1975 cells harboring EGFR L858R/T790M mutant assessed as live cells at 0.5 uM measured after 18 hrs by Annexin V-FITC/PI staining based flow cytometry analysis (Rvb= 89.4%); type: functional
HCC827 [2] = assay: Induction of cell cycle arrest in human HCC827 cells harboring EGFR del E746-A750 mutant assessed as accumulation of cells in G2/M phase at 1 uM measured after 18 hrs by PI/RNaseA staining based flow cytometry analysis (Rvb= 16.78%); type: functional
HCC827 [3] = assay: Induction of cell cycle arrest in human HCC827 cells harboring EGFR del E746-A750 mutant assessed as accumulation of cells in S phase at 5 uM measured after 18 hrs by PI/RNaseA staining based flow cytometry analysis (Rvb= 33.62%); type: functional
NCI-H1975 [4] = assay: Induction of apoptosis in human NCI-H1975 cells harboring EGFR L858R/T790M mutant assessed as early apoptotic cells at 0.5 uM measured after 18 hrs by Annexin V-FITC/PI staining based flow cytometry analysis (Rvb= […]); type: functional
A549 [5] = assay: Induction of cell cycle arrest in human A549 cells harboring wild type EGFR assessed as accumulation of cells in G0/G1 phase at 1 uM measured after 18 hrs by PI/RNaseA staining based flow cytometry analysis (Rvb= 58.27%); type: functional
HCC827 [6] = assay: Induction of cell cycle arrest in human HCC827 cells harboring EGFR del E746-A750 mutant assessed as accumulation of cells in S phase at 1 uM measured after 18 hrs by PI/RNaseA staining based flow cytometry analysis (Rvb= 33.62%); type: functional
A549 [7] = assay: Induction of cell cycle arrest in human A549 cells harboring wild type EGFR assessed as accumulation of cells in S phase at 5 uM measured after 18 hrs by PI/RNaseA staining based flow cytometry analysis (Rvb= 33.26%); type: functional
HBE = assay: Inhibition of AKT/S6 phosphorylation […] in human HBE cells at 5 uM incubated for 2 hrs by immunoblotting analysis; type: cell-based
A549 [8] = assay: Induction of cell cycle arrest in human A549 cells harboring wild type EGFR assessed as accumulation of cells in G0/G1 phase at 5 uM measured after 18 hrs by PI/RNaseA staining based flow cytometry analysis (Rvb= 58.27%); type: functional
NCI-H1975 [9] = assay: Induction of cell cycle arrest in human NCI-H1975 cells harboring EGFR L858R/T790M mutant assessed as accumulation of cells in G0/G1 phase at 0.5 uM measured after 18 hrs by PI/RNaseA staining based flow cytometry analysis (Rvb= 42.69%); type: functional
A549 [10] = assay: Cytotoxicity against human A549 cells harboring wild type EGFR assessed as reduction in cell viability measured after 48 hrs by CCK8 assay; type: functional, cell-based; settings: A549, 48 h
A549 [11] = assay: Induction of cell cycle arrest in human A549 cells harboring wild type EGFR assessed as accumulation of cells in S phase at 0.5 uM measured after 18 hrs by PI/RNaseA staining based flow cytometry analysis (Rvb= 33.26%); type: functional
HCC827 [12] = assay: Induction of apoptosis in human HCC827 cells harboring EGFR del E746-A750 mutant assessed as early apoptotic cells at 0.5 uM measured after 18 hrs by Annexin V-FITC/PI staining based flow cytometry analysis (Rvb= 9.6%); type: functional
NCI-H1975 [13] = assay: Induction of apoptosis in human NCI-H1975 cells harboring EGFR L858R/T790M mutant assessed as total apoptotic cells at 5 uM measured after 18 hrs by Annexin V-FITC/PI staining based flow cytometry analysis (Rvb= 9.2%); type: functional
NCI-H1975 [14] = assay: Induction of cell cycle arrest in human NCI-H1975 cells harboring EGFR L858R/T790M mutant assessed as accumulation of cells in G0/G1 phase at 5 uM measured after 18 hrs by PI/RNaseA staining based flow cytometry analysis (Rvb= 42.69%); type: functional
NCI-H1975 [15] = assay: Induction of apoptosis in human NCI-H1975 cells harboring EGFR L858R/T790M mutant assessed as early apoptotic cells at 5 uM measured after 18 hrs by Annexin V-FITC/PI staining based flow cytometry analysis (Rvb= […]); type: functional
NCI-H1975 [16] = assay: Induction of apoptosis in human NCI-H1975 cells harboring EGFR L858R/T790M mutant assessed as late apoptotic cells at 0.5 uM measured after 18 hrs by Annexin V-FITC/PI staining based flow cytometry analysis (Rvb= 0.1%); type: functional
HCC827 [17] = assay: Induction of apoptosis in human HCC827 cells harboring EGFR del E746-A750 mutant assessed as late apoptotic cells at 5 uM measured after 18 hrs by Annexin V-FITC/PI staining based flow cytometry analysis (Rvb= 1.2%); type: functional
HCC827 [18] = assay: Induction of cell cycle arrest in human HCC827 cells harboring EGFR del E746-A750 mutant assessed as accumulation of cells in G2/M phase at 0.5 uM measured after 18 hrs by PI/RNaseA staining based flow cytometry analysis (Rvb= 16.78%); type: functional
[19] = biological target: Mitogen-activated protein kinase; ERK1/ERK2 (Homo sapiens) (UniProt P27361+P28482); assay: Inhibition of ERK1/2 phosphorylation at Thr202/Tyr204 residue in human HBE cells at 5 uM incubated for 2 hrs by immunoblotting analysis; type: cell-based
NCI-H1975 [20] = assay: Induction of apoptosis in human NCI-H1975 cells harboring EGFR L858R/T790M mutant assessed as total apoptotic cells at 0.5 uM measured after 18 hrs by Annexin V-FITC/PI staining based flow cytometry analysis (Rvb= 9.2%); type: functional
NCI-H1975 [21] = assay: Induction of cell cycle arrest in human NCI-H1975 cells harboring EGFR L858R/T790M mutant assessed as accumulation of cells in S phase at 0.5 uM measured after 18 hrs by PI/RNaseA staining based flow cytometry analysis (Rvb= 39.78%); type: functional
HCC827 [22] = assay: Induction of cell cycle arrest in human HCC827 cells harboring EGFR del E746-A750 mutant assessed as accumulation of cells in G2/M phase at 5 uM measured after 18 hrs by PI/RNaseA staining based flow cytometry analysis (Rvb= 16.78%); type: functional
HCC827 [23] = assay: Induction of cell cycle arrest in human HCC827 cells harboring EGFR del E746-A750 mutant assessed as accumulation of cells in S phase at 0.5 uM measured after 18 hrs by PI/RNaseA staining based flow cytometry analysis (Rvb= 33.62%); type: functional
HCC827 [24] = assay: Induction of apoptosis in human HCC827 cells harboring EGFR del E746-A750 mutant assessed as dead cells at 5 uM measured after 18 hrs by Annexin V-FITC/PI staining based flow cytometry analysis (Rvb= […]); type: functional
HCC827 [25] = assay: Cytotoxicity against human HCC827 cells harboring EGFR del E746-A750 mutant assessed as reduction in cell viability measured after 48 hrs by CCK8 assay; type: functional, cell-based; settings: HCC827, 48 h
HCC827 [26] = assay: Induction of apoptosis in human HCC827 cells harboring EGFR del E746-A750 mutant assessed as live cells at 0.5 uM measured after 18 hrs by Annexin V-FITC/PI staining based flow cytometry analysis (Rvb= 87.5%); type: functional

Sequence of Mitogen-activated protein kinase; ERK1/ERK2 (Homo sapiens) (P27361 whole entry, looked up): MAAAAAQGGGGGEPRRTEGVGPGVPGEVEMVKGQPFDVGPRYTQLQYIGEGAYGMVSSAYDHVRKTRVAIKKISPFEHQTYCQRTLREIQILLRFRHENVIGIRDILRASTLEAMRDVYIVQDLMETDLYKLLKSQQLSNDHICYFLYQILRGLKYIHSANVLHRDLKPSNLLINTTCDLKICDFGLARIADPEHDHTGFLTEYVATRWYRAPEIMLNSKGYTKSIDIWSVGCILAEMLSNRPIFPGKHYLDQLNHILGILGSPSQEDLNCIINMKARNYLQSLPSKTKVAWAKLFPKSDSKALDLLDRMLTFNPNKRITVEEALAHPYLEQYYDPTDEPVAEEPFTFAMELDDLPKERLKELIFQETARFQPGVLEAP
Sequence of Mitogen-activated protein kinase; ERK1/ERK2 (Homo sapiens) (P28482 whole entry, looked up): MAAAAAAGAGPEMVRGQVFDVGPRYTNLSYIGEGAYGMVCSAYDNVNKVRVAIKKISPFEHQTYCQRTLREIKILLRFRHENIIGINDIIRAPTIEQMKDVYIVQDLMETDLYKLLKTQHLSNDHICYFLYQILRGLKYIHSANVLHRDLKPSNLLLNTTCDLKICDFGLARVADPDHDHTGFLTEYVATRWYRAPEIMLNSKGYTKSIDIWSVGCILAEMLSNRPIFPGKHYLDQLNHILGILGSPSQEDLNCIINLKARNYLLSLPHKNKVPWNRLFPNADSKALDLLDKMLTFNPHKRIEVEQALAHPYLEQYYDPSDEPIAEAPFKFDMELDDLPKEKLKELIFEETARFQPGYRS

| SMILES | Activity (NCI-H1975 [1]) [%] | Activity (HCC827 [2]) [%] | Activity (HCC827 [3]) [%] | Activity (NCI-H1975 [4]) [%] | Activity (A549 [5]) [%] | Activity (HCC827 [6]) [%] | Activity (A549 [7]) [%] | inhibition (HBE) | Activity (A549 [8]) [%] | Activity (NCI-H1975 [9]) [%] | IC50 (A549 [10]) [nM] | Activity (A549 [11]) [%] | Activity (HCC827 [12]) [%] | Activity (NCI-H1975 [13]) [%] | Activity (NCI-H1975 [14]) [%] | Activity (NCI-H1975 [15]) [%] | Activity (NCI-H1975 [16]) [%] | Activity (HCC827 [17]) [%] | Activity (HCC827 [18]) [%] | inhibition [19] | also measured |
| --- | --- | --- | --- | --- | --- | --- | --- | --- | --- | --- | --- | --- | --- | --- | --- | --- | --- | --- | --- | --- | --- |
| C=CC(=O)Nc1cccc(Oc2nc(Nc3ccc(N4CCN(C)CC4)c(F)c3)nc3[nH]ccc23)c1 [ABIVERTINIB] | 89 | 11.63 | 10.83 | 8.3 | 62.04 | 15.37 | 14.85 | inactive | 77.6 | 61.74 | 1920 | 30.03 | 12 | 11.7 | 79.06 | 11.3 | 1.2 | 21.6 | 9.53 | Active | Activity (NCI-H1975 [20]): 9.5%; Activity (NCI-H1975 [21]): 21.24%; Activity (HCC827 [22]): 8.82%; Activity (HCC827 [23]): 15.36%; Activity (HCC827 [24]): 1.5%; IC50 (HCC827 [25]): 100 nM; Activity (HCC827 [26]): 67.9% |
| C=CC(=O)Nc1cccc(Oc2nc(Nc3ccc(N4CCN(C)CC4)c([N+](=O)[O-])c3)nc3[nH]ccc23)c1 | 85.3 | 11.55 | 4.36 | 12.4 | 70.46 | 10.81 | 8.2 | inactive | 82.55 | 64.89 | 2900 | 27.39 | 12.4 | 13.5 | 80.34 | 13.2 | 0.3 | 19.4 | 8.5 | Active | Activity (NCI-H1975 [20]): 12.7%; Activity (NCI-H1975 [21]): 20.79%; Activity (HCC827 [22]): 14.12%; Activity (HCC827 [23]): 14.31%; Activity (HCC827 [24]): 2.5%; IC50 (HCC827 [25]): 110 nM; Activity (HCC827 [26]): 68.2% |
| C=CC(=O)Nc1cccc(Oc2nc(Nc3ccc(N4CCN(C)CC4)c(N)c3)nc3[nH]ccc23)c1 | 81.1 | 7.18 | 13.93 | 16.1 | 64.23 | 20.39 | 6.86 | inactive | 85.05 | 64.04 | 6070 | 29.06 | 11.1 | 16.1 | 80.62 | 15.9 | 0.3 | 16.6 | 10.04 | Active | Activity (NCI-H1975 [20]): 16.4%; Activity (NCI-H1975 [21]): 19.32%; Activity (HCC827 [22]): 7.95%; Activity (HCC827 [23]): 15.39%; Activity (HCC827 [24]): 2.1%; IC50 (HCC827 [25]): 46 nM; Activity (HCC827 [26]): 69.1% |

Source: ChEMBL document CHEMBL4828722, “The synthesis and bioactivity of pyrrolo[2,3-d]pyrimidine derivatives as tyrosine kinase inhibitors for NSCLC cells with EGFR mutations” (Eur J Med Chem, 2021)
